One data set concerns the target T1, WT CYP3A4 (Homo sapiens, UniProt P08684).
T1 construct: made in house
Briefly: Equilibrium spectral binding titration of WT CYP3A4. The note with it: for Spectral ligand type: WT CYP3A4, Soret band shift; for Spectral changes / low-to-high spin transition induced: WT CYP3A4, saturating ligand. How it is done: (§1) Fitting was performed using SigmaPlot software (Grafiti LLC).

The target in a further data set is CYP3A4 S119A (Homo sapiens, UniProt P08684, S119A). The data set is described as follows: biochemical.
CYP3A4 S119A, sequence (P08684 with tags, fused parts or gaps S119A): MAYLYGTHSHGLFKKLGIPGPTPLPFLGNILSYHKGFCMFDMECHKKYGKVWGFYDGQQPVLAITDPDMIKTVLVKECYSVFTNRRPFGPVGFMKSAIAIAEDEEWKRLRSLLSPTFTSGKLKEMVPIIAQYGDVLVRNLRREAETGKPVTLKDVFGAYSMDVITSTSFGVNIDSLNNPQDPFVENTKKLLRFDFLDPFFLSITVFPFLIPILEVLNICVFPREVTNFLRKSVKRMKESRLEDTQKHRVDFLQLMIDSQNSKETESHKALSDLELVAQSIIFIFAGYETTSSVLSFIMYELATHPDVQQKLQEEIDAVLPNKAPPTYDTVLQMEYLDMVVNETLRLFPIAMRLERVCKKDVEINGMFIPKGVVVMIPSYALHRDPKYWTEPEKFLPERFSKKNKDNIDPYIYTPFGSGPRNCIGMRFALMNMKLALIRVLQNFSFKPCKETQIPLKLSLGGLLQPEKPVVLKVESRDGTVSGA
Another data set addresses T2, CYP3A4 R212A (Homo sapiens, UniProt P08684, R212A).
T2 construct: made in house
Briefly: Equilibrium spectral binding titration of CYP3A4 R212A mutant. Here is the method: as §1

In the next data set the target is T3, CYP3A4 (wild type) (Homo sapiens, UniProt P08684).
T3 construct: made in house
T3 sequence (P08684 with tags, fused parts or gaps): as the sequence (P08684 with tags, fused parts or gaps S119A) above, with A99S counted along it
Briefly: Equilibrium spectral binding titration of WT CYP3A4. The note with it: human, recombinant Δ3-22 truncated wild-type CYP3A4 protein, pH 7.4; WT CYP3A4, second of two binding sites; read-out: Kd2 (two-site binding fitting). Here is the method:
as §1

For data set [1] the following is noted: upon intravenous and immediate-release oral administration ref 32; cited from earlier work.

Molecules are shown by their SMILES.

T1 sequence (P08684 with tags, fused parts or gaps): as the sequence (P08684 with tags, fused parts or gaps S119A) above, with A99S counted along it
T2 sequence (P08684 with tags, fused parts or gaps R212A): as the sequence (P08684 with tags, fused parts or gaps S119A) above, with A99S, R192A counted along it

Take `C=C(C)[C@@H]1CCC(C)=C[C@H]1c1c(O)cc(CCCCC)cc1O` [CBD, cannabidiol]: the figures for the Spectral ligand type entry on WT CYP3A4 and on WT CYP3A4 (listed as cannabidiol) were “type I spectral changes” and “type I ligands”, respectively. For the same compound, the “Spectral changes / low-to-high spin transition induced” value at WT CYP3A4 is reported as “nearly complete high-spin transition”.

As to `CCCCCc1cc(O)c2c(c1)OC(C)(C)[C@@H]1CCC(C)=C[C@@H]21` [THC, (−)-trans-Δ^9-tetrahydrocannabinol], on WT CYP3A4, the Kd is 1900 nM, the Spectral ligand type entry is recorded as “type I ligand” and the “Spectral changes / low-to-high spin transition induced” value is recorded as “nearly complete low-to-high spin transition”. Moreover, the Kd at CYP3A4 S119A stood at 3000 ± 300 nM. This compound also showed a Kd on CYP3A4 R212A of 2800 ± 300 nM.

As to `CCCCCc1cc(O)c2c(c1)OC(C)(C)c1ccc(C)cc1-2` [CBN, cannabinol], the “Spectral changes / low-to-high spin transition induced” value is recorded as “only minor spectral changes” at WT CYP3A4 and “only negligible spectral changes” at WT CYP3A4 (listed as cannabinol).

As for `NC(=O)C(c1ccccc1)(c1ccccc1)[C@@H]1CCN(CCc2ccc3c(c2)CCO3)C1` [darifenacin], the Spectral ligand type result at WT CYP3A4 was “type I ligand”. Also, the “Observed absorbance change during association to the high-affinity site” value at WT CYP3A4 (WT CYP3A4, share of total absorbance change) is given as ~70%. Further, the Kd at CYP3A4 (wild type) came to 712000 nM. Moreover, the half-life in data set [1] was 3 to 4 h.

Broadly, the half-life is how long it takes for the measured level to halve.
